{"source": "ChEMBL document CHEMBL1125662", "about": "“Inhibition of human placental aromatase by novel homologated 19-oxiranyl and 19-thiiranyl steroids” (J Med Chem, 1991)"}
{"molecular_target": "T1, Aromatase (Homo sapiens, UniProt P11511)", "T1 sequence (P11511 whole entry)": "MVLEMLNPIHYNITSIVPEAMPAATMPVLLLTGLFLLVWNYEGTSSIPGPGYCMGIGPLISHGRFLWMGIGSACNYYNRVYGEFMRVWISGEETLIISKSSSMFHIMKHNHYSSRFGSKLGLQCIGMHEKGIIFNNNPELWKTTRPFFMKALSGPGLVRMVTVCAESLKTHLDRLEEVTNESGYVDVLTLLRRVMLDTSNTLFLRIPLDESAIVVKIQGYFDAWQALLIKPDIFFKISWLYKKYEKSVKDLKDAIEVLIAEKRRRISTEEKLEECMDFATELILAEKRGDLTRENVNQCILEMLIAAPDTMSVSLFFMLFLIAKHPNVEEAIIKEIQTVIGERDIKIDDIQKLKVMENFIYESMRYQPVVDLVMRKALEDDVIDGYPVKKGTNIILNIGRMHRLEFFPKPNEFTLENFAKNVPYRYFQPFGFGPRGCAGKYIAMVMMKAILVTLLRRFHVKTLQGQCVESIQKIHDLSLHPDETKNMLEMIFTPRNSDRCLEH", "units": {"Ki": "nM"}, "description": "Inhibition of human placental Cytochrome P450 19A1"}
{"smiles": "C[C@]12CC[C@H]3[C@@H](CCC4=CC(=O)CC[C@@]43C[C@@H]3CO3)[C@@H]1CCC2=O", "Ki": 753}
{"smiles": "C[C@]12CC[C@H]3[C@@H](CCC4=CC(=O)CC[C@@]43C[C@H]3CO3)[C@@H]1CCC2=O", "Ki": 86}
{"smiles": "C[C@]12CC[C@H]3[C@@H](CCC4=CC(=O)CC[C@@]43C[C@H]3CS3)[C@@H]1CCC2=O", "Ki": 22}
{"smiles": "C[C@]12CC[C@H]3[C@@H](CCC4=CC(=O)CC[C@@]43C[C@@H]3CS3)[C@@H]1CCC2=O", "Ki": 206}
